Assay results from patent US20030215462A1, “Use of UGT inhibitors to increase bioavailability” (priority 2001, published 2003).
pIC50: −log10 of the molar value. Values joined by “and” are separate entries in the source; they are usually repeats but may differ in a detail not shown here. Identical values can stand only once. Like-named read-outs stand apart in the source and are kept apart here.

Legend:
Assay type in all cases: biochemical
[1] = system: T1, UGT enzymes of human liver microsomes; assay: Inhibition of 7-HFC glucuronidation in human liver microsomes; details: for % of control metabolism (SD, n = 3), 7-HFC glucuronidation: human liver microsomes 100 μg/ml
T1 construct: percentage of control metabolism, 7-HFC glucuronidation; percentage of control metabolism, 7-HFC glucuronidation

[2] = target: T2, UGT enzymes of human liver microsomes (Homo sapiens, UniProt P16662); assay: Inhibition of zidovudine glucuronidation in human liver microsomes; details: liver lot 062101
T2 construct: residual metabolism (percentage of control), zidovudine glucuronidation; other: liver lot 062101; residual metabolism (percentage of control), zidovudine glucuronidation; residual metabolism (percentage of control)
T2 sequence (P16662 1-529): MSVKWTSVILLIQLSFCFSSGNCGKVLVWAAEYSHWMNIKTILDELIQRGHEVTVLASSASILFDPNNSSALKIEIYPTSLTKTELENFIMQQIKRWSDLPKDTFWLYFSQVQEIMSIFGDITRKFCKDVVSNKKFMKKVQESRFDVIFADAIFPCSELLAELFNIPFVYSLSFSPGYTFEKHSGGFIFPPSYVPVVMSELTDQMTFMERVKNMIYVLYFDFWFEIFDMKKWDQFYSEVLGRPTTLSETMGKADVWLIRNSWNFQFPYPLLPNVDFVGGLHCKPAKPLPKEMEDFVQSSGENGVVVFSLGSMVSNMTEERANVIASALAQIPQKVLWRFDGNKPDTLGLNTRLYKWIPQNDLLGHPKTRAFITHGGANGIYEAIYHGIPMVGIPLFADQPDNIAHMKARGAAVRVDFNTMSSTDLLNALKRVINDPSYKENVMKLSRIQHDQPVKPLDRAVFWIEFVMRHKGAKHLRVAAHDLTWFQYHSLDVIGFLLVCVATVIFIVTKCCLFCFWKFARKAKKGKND
Protocol: Compounds were eluted using a binary solvent gradient system where solvent A was dilute phosphoric acid (pH 3) and solvent B was acetonitrile.
Standardized incubations utilized 500 μM zidovudine substrate, 1 mg/ml microsomal protein, 5 mM UDPGA and a 30 min incubation time. […] Int.

[3] = system: UGT enzymes of human liver microsomes; assay: Inhibition of raloxifene glucuronidation (G1, G2) in human liver microsomes
Description: Compounds were eluted using a binary solvent gradient system. […] Solvent B was methanol. […] Detection was at 280 nm.

[4] = inhibitor 500 μM, 7-HFC 50 μM, 15 min
[5] = G1, inhibitor 100 μM, raloxifene 50 μM, human liver microsomes 250 μg/ml, 15 min
[6] = G1, inhibitor 500 μM, raloxifene 50 μM, human liver microsomes 250 μg/ml, 15 min
[7] = G2, inhibitor 100 μM, raloxifene 50 μM, human liver microsomes 250 μg/ml, 15 min
[8] = G2, inhibitor 500 μM, raloxifene 50 μM, human liver microsomes 250 μg/ml, 15 min
[9] = inhibitor 100 μM, 7-HFC 50 μM, 15 min
[10] = inhibitor 200 μM, 7-HFC 50 μM, 15 min

Structure (SMILES): CCCC(=O)OCC(O)C1OC(=O)C(OC(=O)CCC)=C1O (centres unmarked) [Ascorbyl-2,6-dibutyrate]
- % of control metabolism (SD, n = 3), 7-HFC glucuronidation [1, 4]: 92 (1) %

Structure (SMILES): COc1cc(C=O)ccc1O [Vanillin]
- residual metabolism (percentage of control), zidovudine glucuronidation ([2]; inhibitor 500 μM): 81 (4) %

Structure (SMILES): COc1c2ccoc2cc2oc(=O)ccc12 [5-Methoxypsoralen (bergapten)]
- % of control metabolism (SD, n = 3), 7-HFC glucuronidation [1, 4]: 97 (1), % and 92 (1) %

Structure (SMILES): CCCCCCCCCCCCOC(=O)c1cc(O)c(O)c(O)c1 [Lauryl gallate]
- % of control metabolism (SD, n = 3), raloxifene glucuronide G1 [3, 5]: 64 (4) %
- % of control metabolism (SD, n = 3), raloxifene glucuronide G1 [3, 6]: 7 (0) %
- % of control metabolism (SD, n = 3), raloxifene glucuronide G2 [3, 7]: 85 (3) %
- % of control metabolism (SD, n = 3), raloxifene glucuronide G2 [3, 8]: 37 (1) %
- pIC50 ([1]; 7-HFC 50 μM, 1 mM UDPGA, 15 min): 4.00
- percentage of control metabolism, 7-HFC glucuronidation ([1]; inhibitor 25 μM): 92 (3) %
- % of control metabolism (SD, n = 3), 7-HFC glucuronidation ([1]; inhibitor 25 μM, 7-HFC 50 μM, 15 min): 92 (3) %
- percentage of control metabolism, 7-HFC glucuronidation ([1]; inhibitor 50 μM): 76 (2) %
- % of control metabolism (SD, n = 3), 7-HFC glucuronidation ([1]; inhibitor 50 μM, 7-HFC 50 μM, 15 min): 76 (2) %
- percentage of control metabolism, 7-HFC glucuronidation ([1]; inhibitor 100 μM): 43 (2) % and 49 (1) %
- % of control metabolism (SD, n = 3), 7-HFC glucuronidation [1, 9]: 43 (2) % and 49 (1) %
- percentage of control metabolism, 7-HFC glucuronidation ([1]; inhibitor 200 μM): 22 (1) %
- % of control metabolism (SD, n = 3), 7-HFC glucuronidation [1, 10]: 22 (1) %
- percentage of control metabolism, 7-HFC glucuronidation ([1]; inhibitor 500 μM): 18 (6) %
- % of control metabolism (SD, n = 3), 7-HFC glucuronidation [1, 4]: 18 (6) %

Structure (SMILES): C=CC(C)(O)CCC=C(C)C (centres unmarked) [Linalool]
- % of control metabolism (SD, n = 3), 7-HFC glucuronidation [1, 4]: 86 (2) %
- residual metabolism (percentage of control), zidovudine glucuronidation ([2]; inhibitor 500 μM): 73 (5) %

Structure (SMILES): O=C(O)c1cc(O)c(O)c(O)c1 [Gallic acid]
- % of control metabolism (SD, n = 3), 7-HFC glucuronidation [1, 4]: 117 (2) %

Structure (SMILES): COc1ccc2cc([C@H](C)C(=O)O)ccc2c1 [Naproxen Free Acid]
- % of control metabolism (SD, n = 3), raloxifene glucuronide G1 [3]: 81 (3) %
- % of control metabolism (SD, n = 3), raloxifene glucuronide G2 [3]: 78 (2) %
- % of control metabolism (SD, n = 3), 7-HFC glucuronidation [1, 4]: 83 (1) %

Structure (SMILES): CC(C)[C@@H]1CC[C@@H](C)C[C@H]1O[C@@H]1O[C@H](C(=O)O)[C@@H](O)[C@H](O)[C@H]1O [Menthol glucuronide]
- % of control metabolism (SD, n = 3), raloxifene glucuronide G1 [3]: 91 (2) %
- % of control metabolism (SD, n = 3), raloxifene glucuronide G2 [3]: 84 (1) %
- % of control metabolism (SD, n = 3), 7-HFC glucuronidation [1, 4]: 94 (4) %

Structure (SMILES): CCCCCCCCCCCCCCCC(=O)Oc1cccc2ccccc12 [α-Naphthyl palmitate]
- % of control metabolism (SD, n = 3), 7-HFC glucuronidation [1, 4]: 70 (3) %

Structure (SMILES): COc1ccc2cc(CCC(C)=O)ccc2c1 [Nabumetone]
- % of control metabolism (SD, n = 3), raloxifene glucuronide G1 [3, 6]: 75 (2) %
- % of control metabolism (SD, n = 3), raloxifene glucuronide G2 [3, 8]: 80 (2) %
- % of control metabolism (SD, n = 3), 7-HFC glucuronidation [1, 4]: 81 (3) %

Structure (SMILES): CC(=O)OC1CC(C)CCC1C(C)C (centres unmarked) [Menthyl acetate]
- residual metabolism (percentage of control), zidovudine glucuronidation ([2]; inhibitor 200 μM): 64 (2) %
- residual metabolism (percentage of control), zidovudine glucuronidation ([2]; inhibitor 500 μM): 35 (1) %
- residual metabolism (percentage of control), zidovudine glucuronidation ([2]; inhibitor 1000 μM): 20 (1) %

Structure (SMILES): CC(C)=CCC/C(C)=C\CO [Nerol]
- % of control metabolism (SD, n = 3), 7-HFC glucuronidation [1, 4]: 71 (2) %

Structure (SMILES): CC1=C(CC(=O)O)c2cc(F)ccc2/C1=C\c1ccc([S+](C)[O-])cc1 (centres unmarked) [Sulindac]
- % of control metabolism (SD, n = 3), raloxifene glucuronide G1 [3, 5]: 76 (6) %
- % of control metabolism (SD, n = 3), raloxifene glucuronide G1 [3, 6]: 25 (3) %
- % of control metabolism (SD, n = 3), raloxifene glucuronide G2 [3, 7]: 79 (4) %
- % of control metabolism (SD, n = 3), raloxifene glucuronide G2 [3, 8]: 44 (2) %
- % of control metabolism (SD, n = 3), 7-HFC glucuronidation [1, 4]: 85 (0) %

Structure (SMILES): O=C(O)C=Cc1ccccc1 [Cinnamic acid]
- % of control metabolism (SD, n = 3), 7-HFC glucuronidation [1, 4]: 94 (2) %
- residual metabolism (percentage of control), zidovudine glucuronidation ([2]; inhibitor 500 μM): 97 (3) %

Structure (SMILES): COc1ccc2c(c1)c(CC(=O)O)c(C)n2C(=O)c1ccc(Cl)cc1 [Indomethacin, reference compound]
- % of control metabolism (SD, n = 3), 7-HFC glucuronidation [1, 9]: 82 (0) %
- % of control metabolism (SD, n = 3), 7-HFC glucuronidation [1, 10]: 73 (1) %
- % of control metabolism (SD, n = 3), 7-HFC glucuronidation [1, 4]: 49 (2), % and 48 (1) %
- residual metabolism (percentage of control), zidovudine glucuronidation ([2]; inhibitor 500 μM): 68 (7) %

Structure (SMILES): CCCCCCCCCCCCCCCC(=O)Oc1ccc([N+](=O)[O-])cc1 [p-Nitrophenyl palmitate]
- % of control metabolism (SD, n = 3), 7-HFC glucuronidation [1, 4]: 96 (1) %

Structure (SMILES): CN(C)CCC=C1c2ccccc2CCc2ccccc21 [Amitriptyline, reference compound]
- % of control metabolism (SD, n = 3), raloxifene glucuronide G1 [3, 6]: 138 (6) %
- % of control metabolism (SD, n = 3), raloxifene glucuronide G2 [3, 8]: 132 (5) %
- % of control metabolism (SD, n = 3), 7-HFC glucuronidation [1, 4]: 94 (1) %
